Measurements taken from patent US10208015B2, “Aryl-triazolyl pyridines as pest control agents” (BAYER ANIMAL HEALTH GMBH, priority 2014, dated 2019).
Where two headings read alike, the source gives them in different places.

Assays:
[1] = logP by HPLC on reversed-phase column (C18), EEC Directive 79/831 Annex V.A8; format: physicochemical
Ctenocephalides felis [2] = test: Ctenocephalides felis in vitro contact test with adult cat fleas; format: in vivo; details: application rate 500 g/ha (5 μg/cm^2), after 48 h
Experimental: Ctenocephalides felis—In Vitro Contact Tests with Adult Cat Fleas
(§1) For the coating of the test tubes, 9 mg of active compound are first dissolved in 1 ml of acetone p.a. and then diluted to the desired concentration with acetone p.a. 250 μl of the solution are distributed homogeneously on the inner walls and the base of a 25 ml test tube by turning and rocking on an orbital shaker (rocking rotation at 30 rpm for 2 h). With 900 ppm active compound solution and internal surface 44.7 cm^2, given homogeneous distribution, an area-based dose of 5 μg/cm^2 is achieved.
After the solvent has evaporated off, the tubes are populated with 5-10 adult cat fleas (Ctenocephalides felis), sealed with a perforated plastic lid and incubated in a horizontal position at room temperature and ambient humidity. After 48 h, efficacy is determined. To this end, the test tubes are stood upright and the fleas are knocked to the base of the tube. Fleas which remain motionless at the base or move in an uncoordinated manner are considered to be dead or moribund.
100% efficacy means that all the fleas were dead or moribund. 0% efficacy means that no fleas were harmed.

Rhipicephalus sanguineus = Rhipicephalus sanguineus in vitro contact test with adult brown dog ticks; format: in vivo; details: after 48 h
Experimental: Rhipicephalus sanguineus—In Vitro Contact Tests with Adult Brown Dog Ticks
as §1
After the solvent has evaporated off, the tubes are populated with 5-10 adult dog ticks (Rhipicephalus sanguineus), sealed with a perforated plastic lid and incubated in a horizontal position in the dark at room temperature and ambient humidity. After 48 h, efficacy is determined. To this end, the ticks are knocked to the floor of the tube and incubated on a hotplate at 45-50° C. for not more than 5 min. Ticks which remain motionless on the floor or move in such an uncoordinated manner that they are unable to deliberately avoid the heat by climbing upwards are considered to be dead or moribund.
An efficacy of 100% means that all the ticks were dead or moribund. 0% efficacy means that none of the ticks had been harmed.

Amblyomma hebraeum = Amblyomma hebraeum test (tick nymphs, immersion); format: in vivo; details: application rate 100 ppm, after 42 days
From the text: Amblyomma hebaraeum Test • Solvent: dimethyl sulphoxide […] Tick nymphs (Amblyomma hebraeum) are placed into perforated plastic beakers and immersed in the desired concentration for one minute. The ticks are transferred on filter paper into a Petri dish and stored in a climate-controlled cabinet.

[3] = tested on: Boophilus microplus Parkhurst strain, SP-resistant; test: Boophilus microplus dip test; format: in vivo; details: application rate 100 ppm, assessed after 7 days
Experimental: Boophilus microplus—Dip Test
• Test animals: cattle ticks (Boophilus microplus) Parkhurst strain, SP-resistant • Solvent: dimethyl sulphoxide
10 mg of active compound are dissolved in 0.5 ml of dimethyl sulphoxide. To produce a suitable formulation, the active compound solution is diluted with water to the concentration desired in each case.
This active compound preparation is pipetted into tubes. 8-10 engorged adult female cattle ticks (Boophilus microplus) are transferred into a further tube with holes. The tube is immersed into the active compound preparation, and all the ticks are completely wetted. After the liquid has run out, the ticks are transferred on filter discs into plastic dishes and stored in a climate-controlled room.
Efficacy is assessed after 7 days by laying of fertile eggs. Eggs which are not visibly fertile are stored in a climate-controlled cabinet until the larvae hatch after about 42 days. An efficacy of 100% means that none of the ticks has laid any fertile eggs; 0% means that all the eggs are fertile.

Boophilus microplus = Boophilus microplus injection test; format: in vivo; details: application rate 20 μg/animal, assessed after 7 days
Experimental: Boophilus microplus—Injection Test • Solvent: dimethyl sulphoxide […] The animals are transferred into dishes and kept in a climate-controlled room. Efficacy is assessed after 7 days by laying of fertile eggs. Eggs which are not visibly fertile are stored in a climate-controlled cabinet until the larvae hatch after about 42 days.

Ctenocephalides felis [4] = test: Ctenocephalides felis oral test; format: in vivo; details: application rate 100 ppm in citrated cattle blood, after 2 days
From the text: Ctenocephalides felis—Oral Test • Solvent: dimethyl sulphoxide […] Dilution with citrated cattle blood gives the desired concentration. About 20 unfed adult cat fleas (Ctenocephalides felis) are placed into a chamber which is closed at the top and bottom with gauze. A metal cylinder whose bottom end is closed with parafilm is placed onto the chamber. The cylinder contains the blood/active compound preparation, which can be imbibed by the fleas through the parafilm membrane.

Lucilia cuprina = Lucilia cuprina test; format: in vivo; details: application rate 100 ppm, L1 larvae, after 2 days
Experimental: (§2) • Solvent: dimethyl sulphoxide
(§3) To produce a suitable preparation of active compound, 10 mg of active compound are mixed with 0.5 ml of dimethyl sulphoxide, and the concentrate is diluted with water to the desired concentration.
About 20 L1 larvae of the Australian sheep blowfly (Lucilia cuprina) are transferred into a test vessel containing minced horsemeat and the active compound preparation of the desired concentration.
After 2 days, the kill in % is determined. 100% means that all the larvae have been killed; 0% means that no larvae have been killed.

Musca domestica = Musca domestica test; format: in vivo; details: application rate 100 ppm, adult houseflies, after 2 days
Experimental: as §2, §3
Vessels containing a sponge treated with sugar solution and the active compound preparation of the desired concentration are populated with 10 adult houseflies (Musca domestica).
After 2 days, the kill in % is determined. 100% means that all of the flies have been killed; 0% means that none of the flies have been killed.

Myzus persicae = Myzus persicae spray test; format: in vivo; details: application rate 100 g/ha, after 6 days
Experimental: Myzus Persicae—Spray Test […] To produce further test concentrations, the preparation is diluted with emulsifier-containing water. Discs of Chinese cabbage leaves (Brassica pekinensis) infested by all stages of the green peach aphid (Myzus persicae) are sprayed with an active compound preparation of the desired concentration.

Phaedon cochleariae = Phaedon cochleariae spray test; format: in vivo; details: application rate 100 g/ha, after 7 days
Experimental: Phaedon Cochleariae—Spray Test
(§4) • Solvent: 78.0 parts by weight of acetone • 1.5 parts by weight of dimethylformamide • Emulsifier: alkylaryl polyglycol ether
(§5) To produce a suitable preparation of active compound, 1 part by weight of active compound is dissolved using the stated parts by weight of solvent and made up with water containing an emulsifier concentration of 1000 ppm until the desired concentration is attained. To produce further test concentrations, the preparation is diluted with emulsifier-containing water.
After 7 days, the efficacy in % is determined. 100% means that all the beetle larvae have been killed; 0% means that no beetle larvae have been killed.

Spodoptera frugiperda = Spodoptera frugiperda spray test; format: in vivo; details: application rate 100 g/ha, after 7 days
Experimental: Spodoptera Frugiperda—Spray Test
as §4, §5
Leaf discs of maize (Zea mays) are sprayed with an active compound preparation of the desired concentration and, after drying, populated with caterpillars of the armyworm (Spodopterafrugiperda).
After 7 days, the efficacy in % is determined. 100% means that all the caterpillars have been killed; 0% means that no caterpillars have been killed.

Tetranychus urticae = Tetranychus urticae spray test, OP-resistant; format: in vivo; details: after 6 days
Experimental: Tetranychus Urticae—Spray Test, OP-Resistant
as §4
To produce further test concentrations, the preparation is diluted with emulsifier-containing water.
After 6 days, the efficacy in % is determined. 100% means that all the spider mites have been killed; 0% means that none of the spider mites have been killed.

[5] = tested on: Anopheles gambiae strain RSPH (homozygot kdr); details: application rate 40 mg/m^2, exposure 30 minutes, 24 hours after contact
Experimental: Anopheles Test (ANPHGB Surface Treatment)
(§6) • Solvent: acetone+2000 ppm rapeseed oil methyl ester (RME)
The exposure time is 30 minutes.
(§7) 24 hours after contact with the treated surface, mortality in % is determined. 100% means that all the mosquitoes have been killed; 0% means that none of the mosquitoes have been killed.

[6] = tested on: Anopheles funestus strain FUMOZ-R; details: application rate 40 mg/m^2, exposure 30 minutes, 24 hours after contact
Experimental: Anopheles Test (ANPHFU Surface Treatment)
as §6
The exposure time is 30 minutes.
as §7

[7] = application rate 500 g/ha (5 μg/cm^2)
[8] = HPLC, C18, acetonitrile (0.1% formic acid)/water (0.09% formic acid) gradient

Cc1cc(C(F)(C(F)(F)F)C(F)(F)F)cc(C)c1-n1cc(-c2cnc(C)c(C(=O)NC3CC3)c2)nn1 [Example 1, N-cyclopropyl-5-[1-[2,6-dimethyl-4-[1,2,2,2-tetrafluoro-1-(trifluoromethyl)ethyl]phenyl]triazol-4-yl]-2-methylpyridine-3-carboxamide]
chromatographic logP ([1]; reversed-phase C18 HPLC column, HPLC, C18, acetonitrile (0.1% formic acid)/water (0.09% formic acid) gradient, read-out: logP): 3.3 | chromatographic logP ([1]; reversed-phase C18 HPLC column, HPLC-MS method a), read-out: log P (HPLC-MS)): 3.33 | efficacy (fleas dead or moribund) (Ctenocephalides felis [2]): 100% | efficacy (ticks dead or moribund) (Rhipicephalus sanguineus; [7]): 100% | efficacy (kill in %) (Amblyomma hebraeum): 80% | efficacy (laying of fertile eggs) [3]: 100% | efficacy (laying of fertile eggs) (Boophilus microplus): 100% | efficacy (kill in %) (Ctenocephalides felis [4]): 100% | efficacy (kill in %) (Lucilia cuprina): 100% | efficacy (kill in %) (Musca domestica): 100% | efficacy in % (Myzus persicae): 90% | efficacy in % (Phaedon cochleariae): 100% | efficacy in % (Spodoptera frugiperda): 100% | efficacy in % (Tetranychus urticae; application rate 100 g/ha): 100%

Cc1cc(C(F)(C(F)(F)F)C(F)(F)F)cc(C)c1-n1cc(-c2cnc(Cl)c(C(=O)NC3CC3)c2)nn1 [Example 2]
logP [1, 8]: 3.8 | efficacy (fleas dead or moribund) (Ctenocephalides felis [2]): 100% | efficacy (ticks dead or moribund) (Rhipicephalus sanguineus; [7]): 100% | efficacy (kill in %) (Amblyomma hebraeum): 100% | efficacy (laying of fertile eggs) [3]: 100% | efficacy (laying of fertile eggs) (Boophilus microplus): 100% | efficacy (kill in %) (Ctenocephalides felis [4]): 100% | efficacy (kill in %) (Lucilia cuprina): 100% | efficacy (kill in %) (Musca domestica): 100% | efficacy in % (Myzus persicae): 90% | efficacy in % (Phaedon cochleariae): 100% | efficacy in % (Spodoptera frugiperda): 100% | efficacy in % (Tetranychus urticae; application rate 100 g/ha): 90%

O=C(NC1CC1)c1cc(-c2cn(-c3c(Cl)cc(C(F)(C(F)(F)F)C(F)(F)F)cc3Cl)nn2)cnc1Cl [Example 3]
logP [1, 8]: 3.9 | efficacy (ticks dead or moribund) (Rhipicephalus sanguineus; [7]): 100% | efficacy (kill in %) (Amblyomma hebraeum): 100% | efficacy (laying of fertile eggs) [3]: 100% | efficacy (laying of fertile eggs) (Boophilus microplus): 100% | efficacy (kill in %) (Ctenocephalides felis [4]): 100% | efficacy (kill in %) (Lucilia cuprina): 100% | efficacy (kill in %) (Musca domestica): 100% | efficacy in % (Phaedon cochleariae): 100% | efficacy in % (Spodoptera frugiperda): 100% | efficacy in % (Tetranychus urticae; application rate 20 g/ha): 90%

Cc1ncc(-c2cn(-c3c(Cl)cc(C(F)(C(F)(F)F)C(F)(F)F)cc3Cl)nn2)cc1C(=O)NC1CC1 [Example 5]
logP [1, 8]: 3.4 | efficacy (fleas dead or moribund) (Ctenocephalides felis [2]): 100% | efficacy (ticks dead or moribund) (Rhipicephalus sanguineus; [7]): 100% | efficacy (kill in %) (Amblyomma hebraeum): 100% | efficacy (laying of fertile eggs) [3]: 100% | efficacy (laying of fertile eggs) (Boophilus microplus): 100% | efficacy (kill in %) (Ctenocephalides felis [4]): 100% | efficacy (kill in %) (Lucilia cuprina): 100% | efficacy (kill in %) (Musca domestica): 100% | efficacy in % (Phaedon cochleariae): 100% | efficacy in % (Spodoptera frugiperda): 100% | efficacy in % (Tetranychus urticae; application rate 100 g/ha): 100%

Cc1cc(C(F)(C(F)(F)F)C(F)(F)F)cc(C)c1-n1cc(-c2cnc(Cl)c(C(=O)NC3(C#N)CC3)c2)nn1 [Example 8]
logP [1, 8]: 3.8 | efficacy (fleas dead or moribund) (Ctenocephalides felis [2]): 100% | efficacy (ticks dead or moribund) (Rhipicephalus sanguineus; [7]): 100% | efficacy (kill in %) (Amblyomma hebraeum): 100% | efficacy (laying of fertile eggs) [3]: 100% | efficacy (laying of fertile eggs) (Boophilus microplus): 100% | efficacy (kill in %) (Ctenocephalides felis [4]): 100% | efficacy (kill in %) (Lucilia cuprina): 90% | efficacy (kill in %) (Musca domestica): 95% | efficacy in % (Phaedon cochleariae): 100% | efficacy in % (Tetranychus urticae; application rate 100 g/ha): 100%

N#CC1(NC(=O)c2cc(-c3cn(-c4c(Cl)cc(C(F)(C(F)(F)F)C(F)(F)F)cc4Cl)nn3)cnc2Cl)CC1 [Example 9]
logP [1, 8]: 3.8 | efficacy (fleas dead or moribund) (Ctenocephalides felis [2]): 100% | efficacy (ticks dead or moribund) (Rhipicephalus sanguineus; application rate 20 g/ha (0.2 μg/cm^2)): 100% | efficacy (kill in %) (Amblyomma hebraeum): 100% | efficacy (laying of fertile eggs) [3]: 100% | efficacy (laying of fertile eggs) (Boophilus microplus): 100% | efficacy (kill in %) (Ctenocephalides felis [4]): 100% | efficacy (kill in %) (Lucilia cuprina): 100% | efficacy (kill in %) (Musca domestica): 100% | efficacy in % (Phaedon cochleariae): 100% | efficacy in % (Tetranychus urticae; application rate 100 g/ha): 100%

O=C(NC1CC1)c1cc(-c2cn(-c3c(Cl)cc(C(F)(C(F)(F)F)C(F)(F)F)cc3C(F)(F)F)nn2)cnc1Cl [Example 16]
logP [1, 8]: 4.0 | efficacy (laying of fertile eggs) [3]: 100% | efficacy (laying of fertile eggs) (Boophilus microplus): 100% | efficacy (kill in %) (Ctenocephalides felis [4]): 100% | efficacy (kill in %) (Lucilia cuprina): 100% | efficacy (kill in %) (Musca domestica): 100% | efficacy in % (Myzus persicae): 90% | efficacy in % (Phaedon cochleariae): 100% | efficacy in % (Spodoptera frugiperda): 100% | efficacy in % (Tetranychus urticae; application rate 100 g/ha): 100% | efficacy (mortality in %) [5]: 90-100% | efficacy (mortality in %) [6]: 90-100%
